From the Kinase Knowledgebase extract (Sharma et al. 2016)

Each compound was assayed against PIK3CG (human) (UniProt P48736) (assay: Inhibition of PIK3CG Kinase Activity).
Sequence of PIK3CG (human) (P48736 whole entry, looked up): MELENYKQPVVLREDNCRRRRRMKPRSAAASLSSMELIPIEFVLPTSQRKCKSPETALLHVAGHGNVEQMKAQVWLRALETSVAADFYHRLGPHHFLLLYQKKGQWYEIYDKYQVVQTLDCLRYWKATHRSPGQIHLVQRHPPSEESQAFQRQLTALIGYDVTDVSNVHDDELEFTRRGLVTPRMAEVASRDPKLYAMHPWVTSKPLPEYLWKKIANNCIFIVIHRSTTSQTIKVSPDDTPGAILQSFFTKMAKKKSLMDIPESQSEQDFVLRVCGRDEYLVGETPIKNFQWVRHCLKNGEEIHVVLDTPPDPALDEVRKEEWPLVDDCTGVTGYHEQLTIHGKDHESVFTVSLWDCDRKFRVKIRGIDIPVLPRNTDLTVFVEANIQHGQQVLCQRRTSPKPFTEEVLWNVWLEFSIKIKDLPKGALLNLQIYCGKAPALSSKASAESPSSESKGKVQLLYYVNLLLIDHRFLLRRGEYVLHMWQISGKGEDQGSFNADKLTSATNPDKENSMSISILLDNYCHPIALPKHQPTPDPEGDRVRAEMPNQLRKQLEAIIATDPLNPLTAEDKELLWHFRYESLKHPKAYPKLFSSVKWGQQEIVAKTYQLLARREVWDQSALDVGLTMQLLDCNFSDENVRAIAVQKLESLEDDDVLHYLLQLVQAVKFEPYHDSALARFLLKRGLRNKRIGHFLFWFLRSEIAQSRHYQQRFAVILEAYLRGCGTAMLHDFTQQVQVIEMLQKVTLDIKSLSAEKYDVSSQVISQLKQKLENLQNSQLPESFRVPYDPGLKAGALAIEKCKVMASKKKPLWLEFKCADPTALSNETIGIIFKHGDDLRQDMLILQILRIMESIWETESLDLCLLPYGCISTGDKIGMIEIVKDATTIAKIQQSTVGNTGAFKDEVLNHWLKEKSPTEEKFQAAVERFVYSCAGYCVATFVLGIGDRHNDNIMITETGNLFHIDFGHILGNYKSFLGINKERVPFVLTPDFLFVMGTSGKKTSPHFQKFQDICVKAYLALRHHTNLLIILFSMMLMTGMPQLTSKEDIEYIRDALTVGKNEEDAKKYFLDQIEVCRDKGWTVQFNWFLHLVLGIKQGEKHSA

| Ki | Compound |
| --- | --- |
| < 100 nM | COc1ncc(-c2cc(C)c3c(n2)CN(c2ccn(C4COC4)n2)C3=O)cc1OC(C)C |
| < 100 nM | COc1cc(-c2ccc3c(n2)CN(c2ccn[nH]2)C3=O)cnc1OC |
| < 100 nM | Cc1cc(-c2cnc(C)c(OCC(F)(F)F)c2)nc2c1C(=O)N(c1cnn(CC(F)(F)F)c1)C2(C)C |
| < 100 nM | Cc1cc(-c2cncc(OCC(F)(F)F)c2)nc2c1C(=O)N(c1cnn(CC(F)F)c1)C2 |
| < 100 nM | Cc1cc(-c2cc(C)c3c(n2)CN(c2cnn(CC(F)(F)F)c2)C3=O)ccn1 |
| < 100 nM | Cc1cc(-c2cncc(OC(C)C)c2)nc2c1C(=O)N(c1cnn(CC(F)(F)F)c1)C2(C)C |
| 100 to 490 nM | COc1cc(-c2ccc3c(n2)CN(c2ccc(N(C)CC4CCCO4)nc2)C3=O)cnc1OC (configuration not stated) |
| < 100 nM | CCn1cc(N2Cc3cc(-c4cnc(OC)c(OC)c4)ccc3C2=O)cn1 |
| < 100 nM | COc1ncc(-c2ccc3c(n2)[C@@H](C)N(c2cnn(CC(F)(F)F)c2)C3=O)cc1O |
| < 100 nM | COc1cncc(-c2cc(C)c3c(n2)C(C)N(c2ccn(CC4CCCO4)n2)C3=O)c1 (configuration not stated) |
| < 100 nM | COc1ncc(-c2cc(C)c3c(n2)CN(c2ccn(C4COC4)n2)C3=O)cc1OCC1CC1 |
| < 100 nM | Cc1cc(-c2cncc(C(=O)N(C)C(C)CO)c2)nc2c1C(=O)N(c1cnn(CC(F)(F)F)c1)C2(C)C (configuration not stated) |
| < 100 nM | C=C(F)Cn1cc(N2Cc3nc(-c4cncc(OC(F)F)c4)cc(C)c3C2=O)cn1 |
| 100 to 490 nM | COc1cc(-c2ccc3c(c2)CN(c2ncc(C)s2)C3=O)cnc1OC |
| 100 to 490 nM | COc1cc(-c2ccc3c(n2)C(C)N(c2cncc(C(C)(C)C#N)c2)C3=O)cnc1OC (configuration not stated) |
| < 100 nM | COc1cc(-c2cc(C)c3c(n2)C(C)N(c2cnn(CC(F)F)c2)C3=O)cnc1OC (configuration not stated) |
| < 100 nM | Cc1cc(-c2cncc(NS(=O)(=O)c3ccc(F)cc3F)c2)nc2c1C(=O)N(c1cnn(CC(F)(F)F)c1)C2(C)C |
| < 100 nM | Cc1cc(-c2cncc(OCC(F)F)c2)nc2c1C(=O)N(c1cnn(CC(F)(F)F)c1)C2(C)C |
| 100 to 490 nM | COc1ncc(-c2ccc3c(n2)CN(c2cnn(CC#N)c2)C3=O)c(OC)n1 |

| Ki | Compound |
| --- | --- |
| < 100 nM | COc1ncc(-c2cc(C)c3c(n2)C(C)(C)N(c2cnn(CC(F)(F)F)c2)C3=O)cc1C(=O)NCCN(C)C |
| < 100 nM | Cc1cc(-c2cncc(OC(F)F)c2)nc2c1C(=O)N(c1cn[nH]c1)C2 |
| < 100 nM | CCOc1cncc(-c2cc(C)c3c(n2)[C@H](C)N(c2cnn(CC(F)(F)F)c2)C3=O)c1 |
| 100 to 490 nM | COCCCn1cc(N2Cc3cc(-c4cnc(OC)c(OC)c4)ccc3C2=O)cn1 |
| < 100 nM | COc1cc(-c2cc(C)c3c(n2)CN(c2cncc(OCCO)c2)C3=O)cnc1OC |
| < 100 nM | COc1cc(-c2ccc3c(n2)[C@H](C)N(c2cccc(C(C)(C)C#N)n2)C3=O)cnc1OC |
| 100 to 490 nM | COc1cc(-c2ccc3c(n2)CN(c2ccc(N(C)CC(OC)OC)nc2)C3=O)cnc1OC |
| 100 to 490 nM | COc1cc(-c2ccc3c(n2)CN(c2cnn(CCN4CCN(C(C)=O)CC4)c2)C3=O)cnc1OC |
| 100 to 490 nM | COc1cc(-c2ccc3c(n2)CN(c2cnn(C4CCCCC4O)c2)C3=O)cnc1OC (configuration not stated) |
| < 100 nM | Cc1cc(-c2cncc(OCC(F)(F)F)c2)nc2c1C(=O)N(c1cnn(CC(F)(F)F)c1)[C@@H]2C |
| 100 to 490 nM | COCCOCCOc1ncc(-c2cc(C)c3c(c2)CN(c2cnn(CC(F)(F)F)c2)C3=O)cc1OC |
| < 100 nM | COc1cc(-c2ccc3c(n2)CN(c2cnn([C@@H](C)C#N)c2)C3=O)cnc1OC |
| < 100 nM | COc1cc(-c2ccc3c(n2)[C@@H](C)N(c2ccn(C[C@@H](C)O)n2)C3=O)cnc1OC |
| < 100 nM | COc1cc(-c2cc(C)c3c(n2)CN(c2ccc(OCC(F)(F)F)nc2)C3=O)cnc1OC |
| < 100 nM | COc1cc(-c2ccc3c(n2)CN(c2cnn(C(F)(F)C(N)=O)c2)C3=O)cnc1OC |
| < 100 nM | COc1cncc(-c2cc(C)c3c(n2)C2(CNC2)N(c2cnn(CC(F)(F)F)c2)C3=O)c1 |
| < 100 nM | C=C(F)Cn1cc(N2Cc3nc(-c4cnc(OC)c(OC)c4)ccc3C2=O)cn1 |
| < 100 nM | CCOc1ncc(-c2cc(C)c3c(n2)CN(c2cnn(CC#N)c2)C3=O)cc1OC |
